According to patent publication US4910194A, “Thienotriazolodiazepine compounds and pharmaceutical uses thereof” (Yoshitomi Pharmaceutical Industries, Ltd., priority 1988, dated 1990):
Values after ≈ are worked out from the molar mass of the structure shown.

Legend:
PAF = settings: literature; cited from earlier work
[1] = test system: PAF-induced platelet aggregation; test: Inhibitory effect on platelet aggregation in rabbits (ex vivo test); settings: Oryctolagus cuniculus, po, rabbit, 1 mg/kg orally, 24 hours, read-out: percentage of inhibition of platelet aggregation at 24 hours after oral administration
Procedure: Test compound (1 mg/kg) was orally administered to rabbit instead of adding it to PRP as in vitro test of Experiment 1, and then the citrated blood samples (9 volumes of blood+1 volume of 3.8% sodium citrate) were collected with the passage of time. Then, the blood samples were employed to determine the inhibitory effect on platelet aggregation according to Experiment 1. The percentage of inhibition at 24 hours after the oral administration of the compound of Example 2 was 100%.

PAF-induced lethal shock = test: Effect on PAF-induced lethal shock in mice; format: in vivo; settings: Mus musculus; male ICR mice, oral 1 hour before 80 μg/kg PAF i.v., survival over 24 hours; read-out: ED50 (p.o.), PAF-induced lethal shock
Procedure: The experiment was carried out according to the method of Young et al. described in Prostaglandins, Vol. 30, p. 545 (1985). Groups of 9 to 15 male ICR mice (Charles River) weighing 25-30 g were used. 80 μg/kg of PAF (Serdary Research Lab.) solution was intravenously administered in a lateral tail vein 1 hour after the oral administration of test compound (0.1 ml/10 g). […] The ED50 (mg/kg, p.o.) of the compound of Example 2 was 0.01 mg/kg.

[2] = test system: PAF-induced platelet aggregation; test: Inhibitory effect on platelet aggregation in rabbits (in vitro test); format: cell-based; settings: Oryctolagus cuniculus, rabbit PRP, PAF 1.8×10^-7 M, 37° C., read-out: Inhibition of PAF-induced platelet aggregation, IC50
Procedure: Blood samples to which was added 0.1 volume of 3.8% sodium citrate were collected from rabbits. Platelet rich plasma (PRP) was prepared by centrifuging the blood sample at 200×g for 10 minutes, and platelet poor plasma (PPP) was prepared by centrifuging the remaining blood sample at 1000×g for 10 minutes.
Aggregation ability was measured with a turbidimetric device (6-channel NKK Hematracer 1, model PAT-6A) according to the method of G. V. R. Born described in J. Physiology, vol. 168, p. 178 (1963). The aggregometer was adjusted in sensitivity to give light transmission values of 0 and 100% for PRP and PPP, respectively. With stirring at 1000 rpm, 0.3 μl of test compound solution or vehicle was added to 0.3 ml of PRP. After the mixture was kept at 37° C. for 2 minutes, to the mixture was added 3 μl PAF (Serdary Research Lab.) at the final concentration of 1.8×10^-7 M and the light transmission was recorded for 5 minutes.
In all experiments, PAF was dissolved in ethanol at the concentration of 100 μg/ml, and, when used, diluted with 0.9% saline solution.
The inhibition percentage of test compounds on platelet aggregation were calculated from the following formula by measuring the maximal light transmission in the presence and absence of the test compounds. [formula]
IC50 (μg/ml, concentration of 50% inhibition) was graphically determined.

| Structure (SMILES) | IC50 [2] | further results |
| --- | --- | --- |
| Cc1nnc2n1-c1sc(CCC(=O)N3CCOCC3)cc1C(c1ccccc1Cl)=NC2 [4-(2-chlorophenyl)-9-methyl-6H-thieno-[3,2-f][1,2,4]triazolo[4,3-a][1,4]diazepine-2-propionic acid morpholide] |  | antagonistic activity on PAF (PAF): exhibit antagonistic activity on PAF |
| CCc1cc2c(s1)-n1c(C)nnc1CN=C2c1ccccc1Cl [Etizolam, 6-(o-chlorophenyl)-8-ethyl-1-methyl-4H-s-triazolo[3,4-c]thieno[2,3-e][1,4]diazepine] |  | antagonistic activity on PAF (PAF): exhibits antagonistic activity on PAF |
| Cc1nnc2n1-c1sc(CCc3ccc(C(O)C(C)C)cc3)cc1C(c1ccccc1Cl)=NC2C (stereo not drawn) [Example 2, 4-(2-chlorophenyl)-2-[2-(4-(1-hydroxy-2-methylpropyl)phenyl)ethyl]-6,9-dimethyl-6H-thieno-[3,2-f][1,2,4]triazolo[4,3-a][1,4]diazepine] | 0.01 to 0.03 µg/mL (≈ 0.0198 to 0.0594 µM) | inhibition at 1 mg/kg [1]: 100%; ED50 (PAF-induced lethal shock): 0.01 mg/kg |
| Cc1nnc2n1-c1sc(CCc3ccc(CC(C)(C)O)cc3)cc1C(c1ccccc1Cl)=NC2C (stereo not drawn) [Example 3, 4-(2-chlorophenyl)-2-[2-(4-(2-hydroxy-2-methylpropyl)phenyl)ethyl]-6,9-dimethyl-6H-thieno[3,2-f][1,2,4]triazolo[4,3-a][1,4]diazepine] | 0.01 to 0.03 µg/mL (≈ 0.0198 to 0.0594 µM) |  |
| Cc1nnc2n1-c1sc(CCc3ccc(CC(C)CO)cc3)cc1C(c1ccccc1Cl)=NC2C (stereo not drawn) [Example 4, 4-(2-chlorophenyl)-2-[2-(4-(3-hydroxy-2-methylpropyl)phenyl)ethyl]-6,9-dimethyl-6H-thieno[3,2-f][1,2,4]triazolo[4,3-a][1,4]diazepine] | 0.03 to 0.1 µg/mL (≈ 0.0594 to 0.198 µM) |  |
| Cc1nnc2n1-c1sc(CCc3ccc(C(=O)C(C)(C)O)cc3)cc1C(c1ccccc1Cl)=NC2C (stereo not drawn) [Example 5, 4-(2-chlorophenyl)-2-[2-(4-(2-hydroxy-2-methylpropionyl)phenyl)ethyl]-6,9-dimethyl-6H-thieno[3,2-f][1,2,4]triazolo[4,3-a][1,4]diazepine] | 0.01 to 0.03 µg/mL (≈ 0.0193 to 0.0578 µM) |  |
| Cc1nnc2n1-c1sc(CCc3ccc(C(O)C(C)(C)O)cc3)cc1C(c1ccccc1Cl)=NC2C (stereo not drawn) [Example 6, 4-(2-chlorophenyl)-2-[2-(4-(1,2-dihydroxy-2-methylpropyl)phenyl)ethyl]-6,9-dimethyl-6H-thieno[3,2-f][1,2,4]triazolo[4,3-a][1,4]diazepine] | 0.03 to 0.1 µg/mL (≈ 0.0576 to 0.192 µM) |  |
